From the supplement of paper PMC11451515

How the values were obtained:
Conditions in all cases: 48 h
NOMO1 [1] = assay: cell viability relative to DMSO control; higher = less cytotoxic
Method in brief: (§1)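 Viability values are per-plate percentages of DMSO wells, with background from cell-free wells. Library compounds in DMSO were pin-dosed, in an 11-point threefold series from 47 μM to 0.79 nM, onto NOMO1 or SEM (500 cells/well) or P12-Ichikawa (1000 cells/well) leukemia cells in 1536-well plates (5 μl). Those cells had been adapted for at least four passages in each medium, and CellTiter-Glo One luminescence was read after 48 h at 37°C.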

P12-Ichikawa [2] = assay: as above
Method in brief: as §1

SEM cells [3] = assay: as above
Method in brief: as §1

NOMO1 [4] = assay: AUC of viability dose-response curve (% viability x log10 dose units); higher = less sensitive
Method in brief: (§2)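 Leukemia cells adapted to each medium (500 or 1000 cells/well, 1536-well plates) were exposed to library compounds in DMSO for 48 h at 37°C at 11 threefold doses, 47 μM to 0.79 nM. Luminescence by CellTiter-Glo One was normalised per plate to DMSO and cell-free wells, then fitted with a four-parameter log-logistic curve on log10 dose. Curves above full viability were scaled and quality-control failures removed before area under the curve was integrated by trapezoidal rule.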

P12-Ichikawa [5] = assay: as above
Method in brief: as §2

SEM cells [6] = assay: as above
Method in brief: as §2

NC[C@H]1O[C@H](O[C@H]2[C@H](O)[C@@H](O[C@H]3O[C@H](CO)[C@@H](O)[C@H](N)[C@H]3O)[C@H](N)C[C@@H]2N)[C@H](N)C[C@@H]1O
cell viability [%]
Conditions | NOMO1 [1] | P12-Ichikawa [2] | SEM cells [3]
HPLM + 10% dialyzed FBS, 0.000781 µM | 103 | 112 | 88.9
HPLM + 10% dialyzed FBS, 0.00234 µM | 99.1 | 98.8 | 95.3
HPLM + 10% dialyzed FBS, 0.00702 µM | 122 | 110 | 98.6
HPLM + 10% dialyzed FBS, 0.0211 µM | 92.5 | 106 | 108
HPLM + 10% dialyzed FBS, 0.0632 µM | 110 | 117 | 104
HPLM + 10% dialyzed FBS, 0.19 µM | 106 | 109 | 92.9
HPLM + 10% dialyzed FBS, 0.569 µM | 112 | 106 | 107
HPLM + 10% dialyzed FBS, 1.71 µM | 102 | 99.8 | 96.9
HPLM + 10% dialyzed FBS, 5.12 µM | 102 | 110 | 101
HPLM + 10% dialyzed FBS, 15.4 µM | 91.9 | 101 | 101
HPLM + 10% dialyzed FBS, 46.1 µM | 106 | 96.6 | 109
RPMI 5 mM glucose + 10% FBS, 0.000781 µM | 109 | 102 | 93.7
RPMI 5 mM glucose + 10% FBS, 0.00234 µM | 103 | 111 | 97.1
RPMI 5 mM glucose + 10% FBS, 0.00702 µM | 101 | 95.9 | 106
RPMI 5 mM glucose + 10% FBS, 0.0211 µM | 110 | 116 | 98.6
RPMI 5 mM glucose + 10% FBS, 0.0632 µM | 104 | 107 | 119
RPMI 5 mM glucose + 10% FBS, 0.19 µM | 103 | 106 | 109
RPMI 5 mM glucose + 10% FBS, 0.569 µM | 105 | 97.1 | 112
RPMI 5 mM glucose + 10% FBS, 1.71 µM | 94.6 | 85.9 | 95.6
RPMI 5 mM glucose + 10% FBS, 5.12 µM | 104 | 94 | 89
RPMI 5 mM glucose + 10% FBS, 15.4 µM | 101 | 98.5 | 100
RPMI 5 mM glucose + 10% FBS, 46.1 µM | 107 | 105 | 111
RPMI 5 mM glucose + 10% dialyzed FBS, 0.000781 µM | 95.3 | 110 | 105
RPMI 5 mM glucose + 10% dialyzed FBS, 0.00234 µM | 101 | 116 | 105
RPMI 5 mM glucose + 10% dialyzed FBS, 0.00702 µM | 95.2 | 117 | 118
RPMI 5 mM glucose + 10% dialyzed FBS, 0.0211 µM | 96 | 119 | 116
RPMI 5 mM glucose + 10% dialyzed FBS, 0.0632 µM | 96.6 | 112 | 107
RPMI 5 mM glucose + 10% dialyzed FBS, 0.19 µM | 99.7 | 88.5 | 108
RPMI 5 mM glucose + 10% dialyzed FBS, 0.569 µM | 94.3 | 79.7 | 110
RPMI 5 mM glucose + 10% dialyzed FBS, 1.71 µM | 89.7 | 91.6 | 104
RPMI 5 mM glucose + 10% dialyzed FBS, 5.12 µM | 81.7 | 91 | 112
RPMI 5 mM glucose + 10% dialyzed FBS, 15.4 µM | 97.2 | 94.6 | 103
RPMI 5 mM glucose + 10% dialyzed FBS, 46.1 µM | 93.4 | 117 | 111

AUC of viability dose-response curve
Conditions | NOMO1 [4] | P12-Ichikawa [5] | SEM cells [6]
HPLM + 10% dialyzed FBS | 467 | 459 | 455
RPMI 5 mM glucose + 10% FBS | 467 | 455 | 470
RPMI 5 mM glucose + 10% dialyzed FBS | 452 | 413 | 469

N[C@@H](Cc1ccc(O)c(O)c1)C(=O)O
cell viability [%]
Conditions | NOMO1 [1] | P12-Ichikawa [2] | SEM cells [3]
HPLM + 10% dialyzed FBS, 0.000781 µM | 121 | 122 | 86.4
HPLM + 10% dialyzed FBS, 0.00234 µM | 133 | 124 | 101
HPLM + 10% dialyzed FBS, 0.00702 µM | 117 | 118 | 102
HPLM + 10% dialyzed FBS, 0.0211 µM | 118 | 119 | 100
HPLM + 10% dialyzed FBS, 0.0632 µM | 144 | 130 | 107
HPLM + 10% dialyzed FBS, 0.19 µM | 131 | 123 | 108
HPLM + 10% dialyzed FBS, 0.569 µM | 122 | 127 | 108
HPLM + 10% dialyzed FBS, 1.71 µM | 136 | 122 | 111
HPLM + 10% dialyzed FBS, 5.12 µM | 131 | 125 | 122
HPLM + 10% dialyzed FBS, 15.4 µM | 116 | 131 | 107
HPLM + 10% dialyzed FBS, 46.1 µM | 55.3 | 121 | 109
RPMI 5 mM glucose + 10% FBS, 0.000781 µM | – | – | 108
RPMI 5 mM glucose + 10% FBS, 0.00234 µM | – | – | 100
RPMI 5 mM glucose + 10% FBS, 0.00702 µM | – | – | 107
RPMI 5 mM glucose + 10% FBS, 0.0211 µM | – | – | 108
RPMI 5 mM glucose + 10% FBS, 0.0632 µM | – | – | 116
RPMI 5 mM glucose + 10% FBS, 0.19 µM | – | – | 115
RPMI 5 mM glucose + 10% FBS, 0.569 µM | – | – | 106
RPMI 5 mM glucose + 10% FBS, 1.71 µM | – | – | 116
RPMI 5 mM glucose + 10% FBS, 5.12 µM | – | – | 126
RPMI 5 mM glucose + 10% FBS, 15.4 µM | – | – | 121
RPMI 5 mM glucose + 10% FBS, 46.1 µM | – | – | 127
RPMI 5 mM glucose + 10% dialyzed FBS, 0.000781 µM | – | – | 92.1
RPMI 5 mM glucose + 10% dialyzed FBS, 0.00234 µM | – | – | 97.6
RPMI 5 mM glucose + 10% dialyzed FBS, 0.00702 µM | – | – | 108
RPMI 5 mM glucose + 10% dialyzed FBS, 0.0211 µM | – | – | 116
RPMI 5 mM glucose + 10% dialyzed FBS, 0.0632 µM | – | – | 117
RPMI 5 mM glucose + 10% dialyzed FBS, 0.19 µM | – | – | 116
RPMI 5 mM glucose + 10% dialyzed FBS, 0.569 µM | – | – | 117
RPMI 5 mM glucose + 10% dialyzed FBS, 1.71 µM | – | – | 123
RPMI 5 mM glucose + 10% dialyzed FBS, 5.12 µM | – | – | 122
RPMI 5 mM glucose + 10% dialyzed FBS, 15.4 µM | – | – | 128
RPMI 5 mM glucose + 10% dialyzed FBS, 46.1 µM | – | – | 105

AUC of viability dose-response curve
Conditions | NOMO1 [4] | P12-Ichikawa [5] | SEM cells [6]
HPLM + 10% dialyzed FBS | 459 | 471 | 456
RPMI 5 mM glucose + 10% FBS | 475 | 454 | 433
RPMI 5 mM glucose + 10% dialyzed FBS | 456 | 466 | 458

CN(C)[C@@H](CCOc1cccc2ccccc12)c1ccccc1
cell viability [%]
Conditions | NOMO1 [1] | P12-Ichikawa [2] | SEM cells [3]
HPLM + 10% dialyzed FBS, 0.000781 µM | 110 | 112 | 139
HPLM + 10% dialyzed FBS, 0.00234 µM | 117 | 111 | 115
HPLM + 10% dialyzed FBS, 0.00702 µM | 129 | 113 | 125
HPLM + 10% dialyzed FBS, 0.0211 µM | 103 | 115 | 110
HPLM + 10% dialyzed FBS, 0.0632 µM | 124 | 115 | 119
HPLM + 10% dialyzed FBS, 0.19 µM | 114 | 112 | 120
HPLM + 10% dialyzed FBS, 0.569 µM | 110 | 109 | 100
HPLM + 10% dialyzed FBS, 1.71 µM | 97.5 | 104 | 108
HPLM + 10% dialyzed FBS, 5.12 µM | 86.4 | 101 | 111
HPLM + 10% dialyzed FBS, 15.4 µM | 106 | 104 | 107
HPLM + 10% dialyzed FBS, 46.1 µM | 70.6 | 88.5 | 65
RPMI 5 mM glucose + 10% FBS, 0.000781 µM | 105 | 116 | 120
RPMI 5 mM glucose + 10% FBS, 0.00234 µM | 112 | 118 | 122
RPMI 5 mM glucose + 10% FBS, 0.00702 µM | 106 | 131 | 122
RPMI 5 mM glucose + 10% FBS, 0.0211 µM | 109 | 122 | 127
RPMI 5 mM glucose + 10% FBS, 0.0632 µM | 119 | 113 | 132
RPMI 5 mM glucose + 10% FBS, 0.19 µM | 106 | 116 | 131
RPMI 5 mM glucose + 10% FBS, 0.569 µM | 110 | 115 | 103
RPMI 5 mM glucose + 10% FBS, 1.71 µM | 113 | 101 | 118
RPMI 5 mM glucose + 10% FBS, 5.12 µM | 99.8 | 92.2 | 95.7
RPMI 5 mM glucose + 10% FBS, 15.4 µM | 98.4 | 110 | 114
RPMI 5 mM glucose + 10% FBS, 46.1 µM | 68.9 | 73.1 | 71.2
RPMI 5 mM glucose + 10% dialyzed FBS, 0.000781 µM | 113 | 111 | 101
RPMI 5 mM glucose + 10% dialyzed FBS, 0.00234 µM | 114 | 102 | 121
RPMI 5 mM glucose + 10% dialyzed FBS, 0.00702 µM | 114 | 114 | 117
RPMI 5 mM glucose + 10% dialyzed FBS, 0.0211 µM | 111 | 110 | 127
RPMI 5 mM glucose + 10% dialyzed FBS, 0.0632 µM | 106 | 115 | 131
RPMI 5 mM glucose + 10% dialyzed FBS, 0.19 µM | 99 | 105 | 129
RPMI 5 mM glucose + 10% dialyzed FBS, 0.569 µM | 119 | 111 | 91.5
RPMI 5 mM glucose + 10% dialyzed FBS, 1.71 µM | 113 | 108 | 132
RPMI 5 mM glucose + 10% dialyzed FBS, 5.12 µM | 114 | 98.2 | 101
RPMI 5 mM glucose + 10% dialyzed FBS, 15.4 µM | 92.7 | 106 | 136
RPMI 5 mM glucose + 10% dialyzed FBS, 46.1 µM | 52.1 | 67.1 | 81

AUC of viability dose-response curve
Conditions | NOMO1 [4] | P12-Ichikawa [5] | SEM cells [6]
HPLM + 10% dialyzed FBS | 433 | 455 | 400
RPMI 5 mM glucose + 10% FBS | 461 | 433 | 444
RPMI 5 mM glucose + 10% dialyzed FBS | 456 | 467 | 469
